Source: the NIST ThermoML archive (doi:10.1021/je060189f)

Assay: mn = molality of the nth substance listed, in mol/kg
Settings: 101 kPa, Liquid

O [water] + O=C(O)CCCCC(=O)O
m2 = 0
Settings | viscosity [mPa·s]
293.15 K | 1.002
298.15 K | 0.8904
303.15 K | 0.7975
308.15 K | 0.7194
313.15 K | 0.653

O=C(O)CCCCC(=O)O [1,6-hexanedioic acid] + O
Settings | mass density [kg/m3] | viscosity [mPa·s]
293.15 K, m1 = 0.00708 | 998.48 | 1.006
293.15 K, m1 = 0.01399 | 998.72 | 1.008
293.15 K, m1 = 0.02122 | 999.01 | 1.01
293.15 K, m1 = 0.02857 | 999.2 | 1.014
293.15 K, m1 = 0.05669 | 1000.16 | 1.023
293.15 K, m1 = 0.08401 | 1000.95 | 1.035
293.15 K, m1 = 0.1125 | 1001.81 | 1.047
293.15 K, m1 = 0.143 | 1002.78 | 1.06
298.15 K, m1 = 0.01287 | 997.49 | –
298.15 K, m1 = 0.0154 | 997.52 | 0.8959
298.15 K, m1 = 0.0257 | 997.83 | 0.8985
298.15 K, m1 = 0.02702 | 997.91 | –
298.15 K, m1 = 0.03133 | 998.11 | 0.9017
298.15 K, m1 = 0.03789 | 998.27 | 0.9028
298.15 K, m1 = 0.04282 | 998.42 | –
298.15 K, m1 = 0.0455 | – | 0.905
298.15 K, m1 = 0.05256 | – | 0.9074
298.15 K, m1 = 0.05544 | 998.81 | –
298.15 K, m1 = 0.05776 | – | 0.9102
298.15 K, m1 = 0.06453 | – | 0.9122
298.15 K, m1 = 0.06825 | 999.2 | –
298.15 K, m1 = 0.06989 | 999.21 | 0.9136
298.15 K, m1 = 0.08417 | 999.71 | –
298.15 K, m1 = 0.08956 | – | 0.9197
298.15 K, m1 = 0.09767 | 1000.15 | –
298.15 K, m1 = 0.1088 | 1000.49 | –
298.15 K, m1 = 0.1136 | 1000.66 | 0.9285
298.15 K, m1 = 0.1266 | 1001.01 | –
298.15 K, m1 = 0.1377 | 1001.33 | –
303.15 K, m1 = 0.01287 | 996.07 | –
303.15 K, m1 = 0.0154 | 996.08 | 0.8022
303.15 K, m1 = 0.0257 | 996.56 | 0.806
303.15 K, m1 = 0.02702 | 996.51 | –
303.15 K, m1 = 0.03133 | 996.64 | 0.8073
303.15 K, m1 = 0.03789 | 996.83 | 0.8085
303.15 K, m1 = 0.04282 | 996.99 | –
303.15 K, m1 = 0.0455 | – | 0.8116
303.15 K, m1 = 0.05256 | – | 0.8134
303.15 K, m1 = 0.05544 | 997.38 | –
303.15 K, m1 = 0.05776 | – | 0.8148
303.15 K, m1 = 0.06453 | – | 0.8157
303.15 K, m1 = 0.06825 | 997.72 | –
303.15 K, m1 = 0.06989 | 997.73 | 0.8172
303.15 K, m1 = 0.08417 | 998.28 | –
303.15 K, m1 = 0.08956 | – | 0.8233
303.15 K, m1 = 0.09767 | 998.74 | –
303.15 K, m1 = 0.1088 | 999.01 | –
303.15 K, m1 = 0.1136 | 999.1 | 0.8297
303.15 K, m1 = 0.1266 | 999.56 | –
303.15 K, m1 = 0.1377 | 999.93 | –
308.15 K, m1 = 0.01287 | 994.41 | –
308.15 K, m1 = 0.0154 | 994.45 | 0.7229
308.15 K, m1 = 0.0257 | 994.79 | 0.7255
308.15 K, m1 = 0.02702 | 994.89 | –
308.15 K, m1 = 0.03133 | 994.96 | 0.7275
308.15 K, m1 = 0.03789 | 995.17 | 0.7285
308.15 K, m1 = 0.04282 | 995.34 | –
308.15 K, m1 = 0.0455 | – | 0.7309
308.15 K, m1 = 0.05256 | – | 0.7323
308.15 K, m1 = 0.05544 | 995.71 | –
308.15 K, m1 = 0.05776 | – | 0.7334
308.15 K, m1 = 0.06453 | – | 0.7353
308.15 K, m1 = 0.06825 | 996.07 | –
308.15 K, m1 = 0.06989 | 996.09 | 0.7362
308.15 K, m1 = 0.08417 | 996.55 | –
308.15 K, m1 = 0.08956 | – | 0.7406
308.15 K, m1 = 0.09767 | 996.95 | –
308.15 K, m1 = 0.1088 | 997.25 | –
308.15 K, m1 = 0.1136 | 997.47 | 0.7457
308.15 K, m1 = 0.1266 | 997.79 | –
308.15 K, m1 = 0.1377 | 998.16 | –
313.15 K, m1 = 0.01287 | 992.54 | –
313.15 K, m1 = 0.0154 | 992.58 | 0.6559
313.15 K, m1 = 0.0257 | 992.89 | 0.6585
313.15 K, m1 = 0.02702 | 993.01 | –
313.15 K, m1 = 0.03133 | 993.19 | 0.66
313.15 K, m1 = 0.03789 | 993.29 | 0.6612
313.15 K, m1 = 0.04282 | 993.45 | –
313.15 K, m1 = 0.0455 | – | 0.6625
313.15 K, m1 = 0.05256 | – | 0.6639
313.15 K, m1 = 0.05544 | 993.89 | –
313.15 K, m1 = 0.05776 | – | 0.6643
313.15 K, m1 = 0.06453 | – | 0.6663
313.15 K, m1 = 0.06825 | 994.21 | –
313.15 K, m1 = 0.06989 | 994.21 | 0.6674
313.15 K, m1 = 0.08417 | 994.66 | –
313.15 K, m1 = 0.08956 | – | 0.6708
313.15 K, m1 = 0.09767 | 995.03 | –
313.15 K, m1 = 0.1088 | 995.33 | –
313.15 K, m1 = 0.1136 | 995.47 | 0.6754
313.15 K, m1 = 0.1266 | 995.88 | –
313.15 K, m1 = 0.1377 | 996.19 | –
